Source: patent US12091424B2, “Rapamycin derivatives” (NOVARTIS AG, priority 2017, dated 2024)

What was measured:
mTORC1 signaling = assay: MEF TSC1−/− cell-based assay for rapalog potency (pS6); design: species or system Mouse; conditions: MEF TSC1−/− cells, average from multiple assays
Description: Cell-based assay for rapalog potency determination. Rapalog potency was determined using MEF TSC1−/− cell based assay. MEF TSC1−/− cells are Mouse Embryonic Fibroblasts deficient in Tuberous sclerosis protein—TSC1, which negatively regulates mTORC1 signaling and thus display constitutive mTORC1 activation, resulting in phosphorylation (activation) of downstream molecules. This cell-based assay is used to measure inhibition (de-phosphorylation) of S6 and 4EBP1 by rapalogs or other mTOR inhibitors.
MEF TSC1−/− cells were plated on Poly-D-lysine coated 384 well Griener clear bottom plates and incubated overnight at 37° C., 5% CO2. […] Nuclei were visualized with Hoechst (ThermoFisher Scientific #H3570) staining. Cells were imaged (InCell 600) using respective fluorescence channels and the potency of mTOR inhibitors was defined by pS6 IC50 (nM).
In vitro potency of mTOR inhibitors was defined by pS6 IC50 (nM) in MEF TSC1−/− cells.

FKBP12 = FKBP12 (Homo sapiens (Human), UniProt P62942); assay: SPR assay, binding affinity to FKBP12; conditions: single-cycle kinetics
Description: (§1) SPR Assay to Determine Binding Affinity to FK506-Binding Proteins (FKBP). N-terminal avi-his6 tagged FKBP fusions to FKBP12, FKBP51 and FKBP52 were expressed in E. coli and purified using standard chromatography. Each protein was subsequently immobilized on a streptavidin chip in a Biacore 8K SPR instrument (GE Healthcare). Using single-cycle kinetics, compound titrations were flowed at 45 uL/min over each surface using 2-minute association and 30-minute dissociation phases in a buffer containing 50 mM Tris pH 7.5/150 mM NaCl/0.01% Tween 20/1 mM DTT/2% DMSO. The data was fit using low molecular weight (LMW) single-cycle kinetics. The equilibrium dissociation constants (KD) are reported.

FKBP51 = FKBP51 (Homo sapiens (Human), UniProt Q13451); assay: SPR assay, binding affinity to FKBP51; conditions: single-cycle kinetics
Description: as §1

FKBP52 = FKBP52 (Homo sapiens (Human), UniProt Q02790); assay: SPR assay, binding affinity to FKBP52; conditions: single-cycle kinetics
Description: as §1

[1] = test system: S6K1 (Thr389) in FKBP12 knock-down 293T cells; assay: S6K1 (Thr389) phosphorylation ELISA in FKBP12 knock-down 293T cells; type: cell-based; conditions: 2 hours treatment
Description: Generating FKPB12 knock-down cells. […] Selection was performed with puromycin for 48 hours and cells were plated for colony formation. FKBP12 knock-down clones were screened by immunoblotting with an anti-FKBP12 antibody (Thermo Scientific, Pierce #PA1-026A).
WT, FKBP12 knock-down and FKBP12 knock-out 293T cells were plated at a density of 30,000 cells per well in poly-D-Lysine coated 96-well plates (Corning, #354461) in Dulbecco's modified Eagle's medium (ThermoFisher, #11995-065) supplemented with 10% fetal bovine serum (ThermoFisher, #16140-071). Cells were incubated at 37° C., 5% CO2 for 48 hours until they reached 80% confluence. […] Media supplemented with blank Dimethyl sulfoxide (DMSO) was used as a control for both compounds. Phosphorylated amounts of S6K1 (Thr389) were detected by a sandwich ELISA kit (Cell signaling, #7063C) following the manufacture's protocol.

in vivo = conditions: male, Sprague Dawley, rat, whole blood

Chain of FKBP51 (Q13451 whole entry): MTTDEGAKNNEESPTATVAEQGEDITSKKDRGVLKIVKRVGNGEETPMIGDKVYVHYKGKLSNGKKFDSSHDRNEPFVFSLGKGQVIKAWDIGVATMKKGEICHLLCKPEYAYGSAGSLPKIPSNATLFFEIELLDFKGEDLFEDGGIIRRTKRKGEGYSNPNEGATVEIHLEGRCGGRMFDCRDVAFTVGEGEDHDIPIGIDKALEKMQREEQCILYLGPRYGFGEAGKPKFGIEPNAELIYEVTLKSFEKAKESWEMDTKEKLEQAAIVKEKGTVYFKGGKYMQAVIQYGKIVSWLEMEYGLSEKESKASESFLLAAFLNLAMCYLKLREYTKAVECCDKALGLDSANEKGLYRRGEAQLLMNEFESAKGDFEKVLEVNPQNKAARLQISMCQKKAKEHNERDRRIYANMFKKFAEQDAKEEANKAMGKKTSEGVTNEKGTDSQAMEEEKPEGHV
Chain of FKBP12 (P62942 whole entry, the tested form may be a part): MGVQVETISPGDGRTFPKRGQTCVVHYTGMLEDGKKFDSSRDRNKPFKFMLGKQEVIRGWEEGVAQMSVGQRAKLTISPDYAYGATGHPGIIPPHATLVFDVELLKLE
Chain of FKBP52 (Q02790 whole entry): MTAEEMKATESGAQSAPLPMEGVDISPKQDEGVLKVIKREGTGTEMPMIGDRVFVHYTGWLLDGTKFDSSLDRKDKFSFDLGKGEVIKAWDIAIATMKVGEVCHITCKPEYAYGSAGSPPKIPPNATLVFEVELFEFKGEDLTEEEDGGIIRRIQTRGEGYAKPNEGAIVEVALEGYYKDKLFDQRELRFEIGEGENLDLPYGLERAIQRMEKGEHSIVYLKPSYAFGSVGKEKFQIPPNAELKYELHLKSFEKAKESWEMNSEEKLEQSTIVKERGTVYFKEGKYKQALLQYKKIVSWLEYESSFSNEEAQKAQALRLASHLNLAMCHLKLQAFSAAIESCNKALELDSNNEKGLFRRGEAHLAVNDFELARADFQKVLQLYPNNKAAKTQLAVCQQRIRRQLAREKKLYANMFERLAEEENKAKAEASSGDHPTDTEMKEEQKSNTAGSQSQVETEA

SMILES: CO[C@@H]1C[C@H](C[C@@H](C)[C@@H]2CC[C@H](C)/C=C(\C)[C@@H](O)[C@@H](OC)C(=O)[C@H](C)C[C@H](C)/C=C/C=C/C=C(\C)C(N3CCC3=O)C[C@@H]3CC[C@@H](C)[C@@](O)(O3)C(=O)C(=O)N3CCCC[C@H]3C(=O)O2)CC[C@H]1O (single isomer, unassigned) [Example 3]
- IC50 (mTORC1 signaling; Mus musculus): 1.45 nM

SMILES: CO[C@@H]1C[C@H](C[C@@H](C)[C@@H]2CC[C@H](C)/C=C(\C)[C@@H](O)[C@@H](OC)C(=O)[C@H](C)C[C@H](C)/C=C/C=C/C=C(\C)C(N3CCN(C)C3=O)C[C@@H]3CC[C@@H](C)[C@@](O)(O3)C(=O)C(=O)N3CCCC[C@H]3C(=O)O2)CC[C@H]1O (single isomer, unassigned) [Example 4, C16-(3-methylimidazolidin-2-one-1-yl)-C32-deoxo-rapamycin]
- IC50 (mTORC1 signaling; Mus musculus): > 500 nM

SMILES: CO[C@@H]1C[C@H](C[C@@H](C)[C@@H]2CC[C@H](C)/C=C(\C)[C@@H](O)[C@@H](OC)C(=O)[C@H](C)C[C@H](C)/C=C/C=C/C=C(\C)C(N3CCN(CCO)C3=O)C[C@@H]3CC[C@@H](C)[C@@](O)(O3)C(=O)C(=O)N3CCCC[C@H]3C(=O)O2)CC[C@H]1O (single isomer, unassigned) [Example 5]
- IC50 (mTORC1 signaling; Mus musculus): 153 nM

SMILES: CO[C@@H]1C[C@H](C[C@@H](C)[C@@H]2CC[C@H](C)/C=C(\C)[C@@H](O)[C@@H](OC)C(=O)[C@H](C)C[C@H](C)/C=C/C=C/C=C(\C)C(N3CCS3(=O)=O)C[C@@H]3CC[C@@H](C)[C@@](O)(O3)C(=O)C(=O)N3CCCC[C@H]3C(=O)O2)CC[C@H]1O (single isomer, unassigned) [Example 6, C16-(1,1-dioxido-1,2-thiazetidin-2-yl)-C32-deoxo-rapamycin]
- IC50 (mTORC1 signaling; Mus musculus): 0.17 nM
- Kd (FKBP12): 0.32 nM
- Kd (FKBP51): 39 nM
- Kd (FKBP52): 53 nM

SMILES: CO[C@@H]1C[C@H](C[C@@H](C)[C@@H]2CC[C@H](C)/C=C(\C)[C@@H](O)[C@@H](OC)C(=O)[C@H](C)C[C@H](C)/C=C/C=C/C=C(\C)C(N3CCS3(=O)=O)C[C@@H]3CC[C@@H](C)[C@@](O)(O3)C(=O)C(=O)N3CCCC[C@H]3C(=O)O2)CC[C@H]1O (single isomer, unassigned) [Example 7, C16-(1,1-dioxido-1,2-thiazetidin-2-yl)-C32-deoxo-rapamycin]
- Kd (FKBP12): 1.2 nM
- Kd (FKBP51): 287 nM
- Kd (FKBP52): 236 nM

SMILES: CO[C@@H]1C[C@H](C[C@@H](C)[C@@H]2CC[C@H](C)/C=C(\C)[C@@H](O)[C@@H](OC)C(=O)[C@H](C)C[C@H](C)/C=C/C=C/C=C(\C)C(N3CCS3(=O)=O)C[C@@H]3CC[C@@H](C)[C@@](O)(O3)C(=O)C(=O)N3CCCC[C@H]3C(=O)O2)CC[C@H]1OP(C)(C)=O (single isomer, unassigned) [Example 10, C16-(1,1-dioxido-1,2-thiazetidin-2-yl)-C32-deoxo-C40-dimethylphosphinyl-rapamycin]
- IC50 (mTORC1 signaling; Mus musculus): 0.557 nM
- Kd (FKBP51): 95 nM

SMILES: CO[C@@H]1C[C@H](C[C@@H](C)[C@@H]2CC[C@H](C)/C=C(\C)[C@@H](O)[C@@H](OC)C(=O)[C@H](C)C[C@H](C)/C=C/C=C/C=C(\C)C(N3CCS3(=O)=O)C[C@@H]3CC[C@@H](C)[C@@](O)(O3)C(=O)C(=O)N3CCCC[C@H]3C(=O)O2)CC[C@H]1OP(C)(C)=O (single isomer, unassigned) [Example 11, C16-(1,1-dioxido-1,2-thiazetidin-2-yl)-C32-deoxo-C40-dimethylphosphinyl-rapamycin]
- IC50 (mTORC1 signaling; Mus musculus): 3.33 nM

SMILES: CO[C@@H]1C[C@H](C[C@@H](C)[C@@H]2CC[C@H](C)/C=C(\C)[C@@H](O)[C@@H](OC)C(=O)[C@H](C)C[C@H](C)/C=C/C=C/C=C(\C)C(N3CCS3(=O)=O)C[C@@H]3CC[C@@H](C)[C@@](O)(O3)C(=O)C(=O)N3CCCC[C@H]3C(=O)O2)CC[C@@H]1n1cnnn1 (single isomer, unassigned) [Example 12]
- IC50 (mTORC1 signaling; Mus musculus): 0.374 nM

SMILES: CO[C@@H]1C[C@H](C[C@@H](C)[C@@H]2CC[C@H](C)/C=C(\C)[C@@H](O)[C@@H](OC)C(=O)[C@H](C)C[C@H](C)/C=C/C=C/C=C(\C)C(N3CCCS3(=O)=O)C[C@@H]3CC[C@@H](C)[C@@](O)(O3)C(=O)C(=O)N3CCCC[C@H]3C(=O)O2)CC[C@H]1OP(C)(C)=O (single isomer, unassigned) [Example 15, C16-(1,1-dioxidoisothiazolidin-2-yl)-C32-deoxo-C40-dimethylphosphinyl-rapamycin]
- IC50 (mTORC1 signaling): 3.2 nM

SMILES: CO[C@@H]1C[C@H](C[C@@H](C)[C@@H]2CC[C@H](C)/C=C(\C)[C@@H](O)[C@@H](OC)C(=O)[C@H](C)C[C@H](C)/C=C/C=C/C=C(\C)C(N3CCCS3(=O)=O)C[C@@H]3CC[C@@H](C)[C@@](O)(O3)C(=O)C(=O)N3CCCC[C@H]3C(=O)O2)CC[C@@H]1n1cnnn1 (single isomer, unassigned) [Example 17]
- IC50 (mTORC1 signaling; Mus musculus): 1.1 nM

SMILES: CCOCCO[C@@H]1CC[C@@H](C[C@@H](C)[C@@H]2CC[C@H](C)/C=C(\C)[C@@H](O)[C@@H](OC)C(=O)[C@H](C)C[C@H](C)/C=C/C=C/C=C(\C)C(N3CCCS3(=O)=O)C[C@@H]3CC[C@@H](C)[C@@](O)(O3)C(=O)C(=O)N3CCCC[C@H]3C(=O)O2)C[C@H]1OC (single isomer, unassigned) [Example 18, C16-(1,1-dioxidoisothiazolidin-2-yl)-C32-deoxo-C40-(2-ethoxyethoxy)-rapamycin]
- IC50 (mTORC1 signaling; Mus musculus): 1.55 nM

SMILES: CO[C@@H]1C[C@H](C[C@@H](C)[C@@H]2CC[C@H](C)/C=C(\C)[C@@H](O)[C@@H](OC)C(=O)[C@H](C)C[C@H](C)/C=C/C=C/C=C(\C)[C@@H](N3CCCS3(=O)=O)C[C@@H]3CC[C@@H](C)[C@@](O)(O3)C(=O)C(=O)N3CCCC[C@H]3C(=O)O2)CC[C@H]1O [Example 1, (S)—C16-(1,1-dioxidoisothiazolidin-2-yl)-C32-deoxo-rapamycin]
- IC50 (mTORC1 signaling; Mus musculus): 2.4 nM
- Kd (FKBP12): 0.35 nM
- Kd (FKBP51): 153 nM
- Kd (FKBP52): 174 nM

SMILES: CO[C@@H]1C[C@H](C[C@@H](C)[C@@H]2CC[C@H](C)/C=C(\C)[C@@H](O)[C@@H](OC)C(=O)[C@H](C)C[C@H](C)/C=C/C=C/C=C(\C)[C@H](N3CCCS3(=O)=O)C[C@@H]3CC[C@@H](C)[C@@](O)(O3)C(=O)C(=O)N3CCCC[C@H]3C(=O)O2)CC[C@H]1OCCO [Example 16, (R)—C16-(1,1-dioxidoisothiazolidin-2-yl)-C32-deoxo-C40-(2-hydroxyethoxy)-rapamycin]
- IC50 (mTORC1 signaling; Mus musculus): 0.645 nM
- Kd (FKBP51): 4060 nM

SMILES: CO[C@H]1C[C@@H]2CC[C@@H](C)[C@@](O)(O2)C(=O)C(=O)N2CCCC[C@H]2C(=O)O[C@H]([C@H](C)C[C@@H]2CC[C@@H](O)[C@H](OC)C2)CC[C@H](C)/C=C(\C)[C@@H](O)[C@@H](OC)C(=O)[C@H](C)C[C@H](C)/C=C/C=C/C=C/1C [Intermediate 1, C32-deoxo-rapamycin, reference compound]
- IC50 (mTORC1 signaling; Mus musculus): 0.092 nM

SMILES: CO[C@H]1C[C@@H]2CC[C@@H](C)[C@@](O)(O2)C(=O)C(=O)N2CCCC[C@H]2C(=O)O[C@H]([C@H](C)C[C@@H]2CC[C@@H](OCCO)[C@H](OC)C2)CC[C@H](C)/C=C(\C)[C@@H](O)[C@@H](OC)C(=O)[C@H](C)C[C@H](C)/C=C/C=C/C=C/1C [Intermediate 3]
- IC50 (mTORC1 signaling; Mus musculus): 0.0591 nM

SMILES: CO[C@H]1C[C@@H]2CC[C@@H](C)[C@@](O)(O2)C(=O)C(=O)N2CCCC[C@H]2C(=O)O[C@H]([C@H](C)C[C@@H]2CC[C@@H](OP(C)(C)=O)[C@H](OC)C2)CC[C@H](C)/C=C(\C)[C@@H](O)[C@@H](OC)C(=O)[C@H](C)C[C@H](C)/C=C/C=C/C=C/1C [Intermediate 4]
- IC50 (mTORC1 signaling; Mus musculus): 0.066 nM

SMILES: CO[C@H]1C[C@@H]2CC[C@@H](C)[C@@](O)(O2)C(=O)C(=O)N2CCCC[C@H]2C(=O)O[C@H]([C@H](C)C[C@@H]2CC[C@H](n3cnnn3)[C@H](OC)C2)CC[C@H](C)/C=C(\C)[C@@H](O)[C@@H](OC)C(=O)[C@H](C)C[C@H](C)/C=C/C=C/C=C/1C [Intermediate 5]
- IC50 (mTORC1 signaling; Mus musculus): 0.106 nM

SMILES: CO[C@H]1C[C@@H]2CC[C@@H](C)[C@@](O)(O2)C(=O)C(=O)N2CCCC[C@H]2C(=O)O[C@H]([C@H](C)C[C@@H]2CC[C@@H](OCCO)[C@H](OC)C2)CC(=O)[C@H](C)/C=C(\C)[C@@H](O)[C@@H](OC)C(=O)[C@H](C)C[C@H](C)/C=C/C=C/C=C/1C [RAD001, everolimus, reference compound]
- IC50 (mTORC1 signaling; Mus musculus): 0.05 nM
- Kd (FKBP51): 811 nM
- maximum inhibition of S6K1(Thr389) [1]: 70%
- clearance (in vivo; iv, 1 mg/kg): 32 mL/min/kg
- bioavailability (in vivo; oral, 3 mg/kg): 19%
